According to US20260272936A1, “TREATMENT OF CANCER WITH A PARG INHIBITOR” (858 Therapeutics, Inc., priority 2023, published 2026):

Tests used:
Assay in all cases: 6-day cell proliferation, nuclei count
Type in all cases: cell-based
[1] = test system: RMUG-S cells; conditions: Homo sapiens, 144 h
From the text: (§1) The FU-97 (Cat #JCRB1074) human gastric cancer cell line and the Kuramochi (Cat #JCRB0098) and RMUG-S(Cat #IFO50320) human ovarian cancer cell lines were obtained from the National Institutes of Biomedical Innovation, Health and Nutrition's Japanese Collection of Research Bioresources (JCRB) (Ibaraki City, Osaka, Japan). The HCC1419 (Cat #CRL-2326) and HCC1428 (Cat #CRL-2327) human breast cancer cell lines and the NCI-H1650 (Cat #CRL-5883) and NCI-H1792 (Cat #CRL-5895) non-small cell lung cancer cell lines were obtained from ATCC (Manassas, Virginia, USA). The human gastric cancer cell lines GCIY (Cat #RCB0555) and SNU601 (Cat #CSC-C9686L) were obtained from the Riken Bioresource Research Center (Tsukuba, Ibaraki, Japan) and Creative Bioarray (Shirley, NY, USA), respectively. The T025OV ovarian cancer organoid model was developed from a patient-derived xenograft (PDX) model, which was developed from primary serous ovarian carcinoma cells obtained from Discovery Life Sciences (Huntsville, AL, USA, SN #350627149). T026OV organoids were developed from PDX cells obtained from The Jackson Laboratory (Bar Harbor, ME, USA, Cat #TM00335).
(§2) All cell lines were grown in an incubator at 37° C. in 5% CO2. The Kuramochi and SNU-601 cells were cultured in RPMI+glutaMAX™ (Thermo Fisher Scientific, Waltham, MA, USA Cat #74200120) containing 1% penicillin/streptomycin (pen/strep) (Thermo Fisher Scientific Cat #15070-063), and 10% fetal bovine serum (FBS) (Thermo Fisher Scientific Cat #A31605-02). The HCC1419, HCC1428, NCI-H1650, and NCI-H1792 cells were cultured in ATCC-modified RPMI+glutaMAX™ (Thermo Fisher Scientific Cat #A10491-01) containing 1% pen/strep and 10% FBS. The FU-97 cells were cultured in DMEM+glutaMAX™ (Thermo Fisher Scientific, Waltham, MA, USA Cat #10566-016) containing 1% pen/strep, 10% FBS and 0.01 mg/mL bovine insulin (MilliporeSigma, Burlington, MA, USA Cat #10516-5ML). The GCIY cells were cultured in MEM (Thermo Fisher Scientific Cat #11095-080) containing 1% pen/strep and 15% FBS. The RMUG-S cells were cultured in Ham's F12 medium+glutaMAX™ (Thermo Fisher Scientific Cat #31765-035) containing 10% FBS and 1% pen/strep.
(§3) Compound 1 IC50 values for inhibition of cell proliferation were determined by imaging and counting the number of nuclei after compound treatment. Cells were harvested with trypsin (Thermo Fisher Scientific, Cat #25200-056) and plated in black-walled, clear bottom 96-well Corning costar 3603 plates (VWR, Radnor, PA, USA Cat #29444-008) at 7500 cells/well (HCC1428 and HCC1419), 5000 cells/well (Kuramochi, FU-97, SNU-601), 2500 cells/well (RMUG-S, GCIY, NCI-H1650) or 1000 cells/well (NCI-H1792) in 100 μL normal growth media and incubated overnight at 37° C., 5% CO2. The following day, a 1000× Compound 1 concentration curve was prepared by serial dilution of Compound 1 in 100% DMSO. The 1000× Compound 1 concentration curve was diluted 1:200 into growth media to generate a 5× concentration curve in 0.5% DMSO/growth medium before addition of 25 μL of the 5× compound to the wells. Control wells received 25 μL of 0.5% DMSO/media alone (negative control wells) or 50 μM Compound 1 (positive controls; 10 μM Compound 1 final). The plate was mixed gently on a plate shaker, covered with Breathe-Easy biofilm (Diversified Biotech, Cat #BEM-1), and incubated at 37° C., 5% CO2 for 6 days. Following the incubation period, a 125 μL fixation/permeabilization solution containing 8% paraformaldehyde (Fisher Scientific, Cat #50-980-495, part of Thermo Fisher Scientific) and 0.2% Triton X-100 (Thermo Fisher Scientific, Cat #327372500) in PBS was added to each well of the plate, and the plates were incubated at room temperature for 20 min. The solution was aspirated and cells washed by the addition of 100 μL PBS. After aspiration of the PBS, nuclei were stained by the addition of 100 μL 1 μg/mL DAPI (Thermo Fisher Cat #62248) in PBS. […]

[2] = test system: SNU-601 cells; conditions: Homo sapiens
From the text: as §1, §2, §3

[3] = test system: HCC1428 cells; conditions: Homo sapiens
From the text: as §1, §2, §3

[4] = test system: NCI-H1792 cells; conditions: Homo sapiens
From the text: as §1, §2, §3

[5] = test system: HCC1419 cells; conditions: Homo sapiens
From the text: as §1, §2, §3

[6] = test system: NCI-H1650 cells; conditions: Homo sapiens
From the text: as §1, §2, §3

[7] = test system: Kuramochi cells; conditions: Homo sapiens, 144 h
From the text: as §1, §2, §3

[8] = test system: GCIY cells; conditions: Homo sapiens, 144 h
From the text: as §1, §2, §3

[9] = test system: FU-97 cells; conditions: Homo sapiens, Fu97, 144 h
From the text: as §1, §2, §3

[10] = read-out: IC50 inhibition of proliferation

## [2H]C([2H])(c1cnn(C)c1)N1C(=O)c2cc(S(=O)(=O)NC3(C)CC3)ccc2N2C1=NC[C@H]2C [Compound 1, (R)-1-methyl-4-((1-methyl-1H-pyrazol-4-yl)methyl-d2)-N-(1-methylcyclopropyl)-5-oxo-1,2,4,5-tetrahydroimidazo[1,2-a]quinazoline-7-sulfonamide]
[1]; [10]
  IC50: 75 nM
[1]; RMUG-S, 6 days, geometric mean, read-out: IC90 inhibition of proliferation
  IC90: 208 nM
[2]; 144 h, SNU-601, 6 days, geometric mean, read-out: IC90 inhibition of proliferation
  IC90: 539 nM
[2]; SNU-601, 144 h, read-out: IC50 inhibition of proliferation
  IC50: 149 nM
[3]; 144 h, HCC1428, 6 days, geometric mean, read-out: IC90 inhibition of proliferation
  IC90: 363 nM
[3]; HCC1428, 144 h, read-out: IC50 inhibition of proliferation
  IC50: 131 nM
[4]; 144 h, NCI-H1792, 6 days, geometric mean, read-out: IC90 inhibition of proliferation
  IC90: 4.28 µM
[4]; NCI-H1792, 144 h, read-out: IC50 inhibition of proliferation
  IC50: 1150 nM
[5]; 144 h, HCC1419, 6 days, geometric mean, read-out: IC90 inhibition of proliferation
  IC90: 206 nM
[5]; HCC1419, 144 h, read-out: IC50 inhibition of proliferation
  IC50: 50 nM
[6]; 144 h, NCI-H1650, 6 days, geometric mean, read-out: IC90 inhibition of proliferation
  IC90: 320 nM
[6]; NCI-H1650, 144 h, read-out: IC50 inhibition of proliferation
  IC50: 100 nM
[7]; [10]
  IC50: 46 nM
[7]; Kuramochi, 6 days, geometric mean, read-out: IC90 inhibition of proliferation
  IC90: 133 nM
[8]; 6 days, geometric mean, read-out: IC90 inhibition of proliferation
  IC90: 125 nM
[8]; [10]
  IC50: 28 nM
[9]; [10]
  IC50: 178 nM
[9]; FU-97, 6 days, geometric mean, read-out: IC90 inhibition of proliferation
  IC90: 833 nM
